Where two headings read alike, the source gives them in different places.
Assays:
[1] = test system: HBV (genotype AeUS); test: Test Example 2-1: anti-HBV assay in PXB-cells (fresh human hepatocytes); type: cell-based, hepatitis B virus; conditions: PXB-cells infected with HBV genotype AeUS, culture supernatant on day 32 post infection
Experimental: Using fresh human hepatocytes (PXB-cells, manufactured by PhenixBio Co., Ltd.) collected from a PXB mouse (a chimeric mouse with human hepatocytes), the anti-HBV activity of the representative compounds was evaluated in the following procedure.
(§1) The following was used as a medium:
DMEM (manufactured by Sigma)+0.25 μg/mL insulin (manufactured by Wako)+1% penicillin/streptomycin. (manufactured by Sigma)+20 mmol/L HEPES (manufactured by Sigma)+15 μg/mL L-proline (manufactured by Sigma)+50 nmol/L dexamethasone (manufactured by Sigma)+5 ng/mL EGF (manufactured by Peprotech)+0.1 mmol/L ascorbic acid 2-phosphate (manufactured by Wako)+10% FBS+2% DMSO
Each of the test compounds) was further added to the medium to prepare a test solution containing each of the test compounds at various concentrations.
(1) PXB-cells seeded at a seeding density of 2.1×10^5 cells/cm^2 in a 96-well microliter plate were incubated in a 5% CO2 incubator at 37° C. until a day on which the cells were infected.
(2) HBV (genotype AeUS) derived from a PXB mouse serum was suspended in the medium containing 4% PEG-8000, and added to the plate of (1) at about 10 copies/cell such that the PXB cells were infected (100 μL/well), and the plate was incubated in a 5% CO2 incubator at 37° C. for 1 day.
(3) The culture supernatant on day 1 post infection was removed and the cells were washed three times with DMEM containing 10% FBS and 1% penicillin/streptomycin. Then, the medium was added to the plate (100 μL/well) and the plate was incubated in a 5% CO2 incubator at 37° C. for 1 day.
(4) The culture supernatant on day 2 post infection was removed and the cells were washed three times with DMEM containing 10% FBS and 1% penicillin/streptomycin. Then, the medium was added to the plate (100 μL/well) and the plate was incubated in a 5% CO2 incubator at 37° C. for 5 days.
(5) The culture supernatant on day 7 post infection was removed, the medium was added to the plate (100 μL/well), and the plate was incubated in a 5% CO2 incubator at 37° C. for 5 days.
(6) The culture supernatant on day 12 post infection was removed, the medium was added to the plate (100 μL/well), and the plate was incubated in a 5% CO2 incubator at 37° C. for 5 days.
(§2) (7) The culture supernatant on day 17 post infection was removed, the test solution was added to the plate (100 μL/well), and the plate was incubated in a 5% CO2 incubator at 37° C. for 5 days. As a control without the compound added, the medium was added to the plate (100 μL/well) and the plate was incubated in a 5% CO2 incubator at 37° C. for 5 days.
as §2, with “(8)” for “(7)”, “22” for “17”
as §2, with “(9)” for “(7)”, “27” for “17”
(10) The culture supernatant on day 32 post infection was collected.
(11) The collected culture supernatant on day 32 post infection was purified with a QIAamp (registered trademark) DNA Blood Mini Kit (manufactured by QIAGEN). The amount of HBV-DNA in the obtained solution was absolutely quantified by a real-time PCR method. In addition, the amount of HBsAg in the culture supernatant was absolutely quantified by chemiluminescent enzyme immunoassay using Lumipulse (registered trademark) HBsAg-HQ (manufactured by Fujirebio Inc.). A relative viral load (%) with respect to a control without the compound added was each calculated. […]

[2] = test system: HBV; test: Test Example 1-1: anti-HBV assay in HepG2.2.15 cells (test solution 200 μL/well); type: cell-based, hepatitis B virus; conditions: culture supernatant
Experimental: Using HepG2.2.15 cells (Proc. Natl. Acad. Sci. USA, 84, 1005-1009, 1987) which have an HBV genome introduced into a hepatoblastoma cell line, HepG2, and persistently produce a virus, the anti-HBV activity of the representative compounds was evaluated in the following procedure.
as §1
DMEM/F-12, GlutaMAX (manufactured by Invitrogen)+5 μg/mL insulin (manufactured by Wako)+1% penicillin/streptomycin (manufactured by Sigma)+10 mmol/L HEPES (manufactured by Sigma)+50 μmol/L hydrocortisone (manufactured by Sigma)+10% FBS
A mixture of a test compound with dimethyl sulfoxide (DMSO) was further added to the medium to obtain a final concentration of DMSO of 0.25% (v/v), and thus, test solutions containing the test compound at various concentrations were prepared. In addition, a test solution obtained by adding DMSO alone to the medium to obtain a final concentration of 0.25% (v/v) was prepared as a control without addition of a drug.
(1) The HepG2.2.15 cells were suspended in the medium to prepare a. HepG2.2.15 cell suspension at 4×10^5 cells/mL. The suspension was seeded in a 96-well microtiter plate (100 μL/well) and the plate was incubated in a 5% CO2 incubator at 37° C. for 2 days.
(2) The culture supernatant was removed and the cells were washed twice with PBS (−) (100 μL/well).
(3) The test solution (200 μL/well) was added to the plate of (2) and the plate was incubated in a 5% CO2 incubator at 37° C. for 4 days.
(4) The culture supernatant was removed, the test solution (200 μL/well) was added again to the plate, and the plate was incubated in a 5% CO2 incubator at 37° C. for 3 days.
(5) The culture supernatant was collected and treated with a mixture of Buffer AL (manufactured by QIAGEN) and Proteinase K (manufactured by Invitrogen). The amount of DNA of HBV (HBV-DNA) in the obtained solution was absolutely quantified by a real-time PCR method. In addition, HBsAg (hepatitis B surface antigen) in the culture supernatant was absolutely quantified by chemiluminescent enzyme immunoassay using Lumipulse (registered trademark) HBsAg-HQ (manufactured by Fujirebio Inc.). The relative viral load (%) of a well with the compound added to a well without the compound added was calculated. An IC50 of the compound was calculated using a FORECAST function (linear regression method) of Microsoft Office Excel 2007 by plotting the logarithm of the concentration against the relative viral load as a real number.
The IC50 of HBV-DNA was defined as a concentration (or a logarithm dilution of the culture supernatant) of the compound, in which the amount of HBV-DNA is reduced by 50% as compared a control without the compound added.
In addition, the IC50 of HBsAg was defined as a concentration (or a logarithm dilution of the culture supernatant) of the compound, in which the amount of HBsAg is reduced by 50% as compared a control without the compound added.

[3] = Hepatitis B virus, Hepatocyte, read-out: IC50 HBV-DNA
[4] = Hepatitis B virus, Hepatocyte, read-out: IC50 HBsAg
[5] = Hepatitis B virus, read-out: IC50 HBV-DNA
[6] = Hepatitis B virus, read-out: IC50 HBsAg

| Molecule | IC50 [1, 3] | IC50 [1, 4] | other results |
| --- | --- | --- | --- |
| COCCN(CCOC)c1nc2ccc(-n3cc(C(=O)O)c(=O)cc3-c3ccc(N4CCCC4)c(Br)c3)cc2s1 [Example 5-3, 1-(2-(bis(2-methoxyethyl)amino)benzo[d]thiazol-6-yl)-6-(3-bromo-4-(pyrrolidin-1-yl)phenyl)-4-oxo-1,4-dihydropyridine-3-carboxylic acid] | 25 nM | 52 nM |  |
| COCCN(CCOC)c1nc2ccc(-n3cc(C(=O)O)c(=O)cc3-c3ccc(N4CCCC4)c(Cl)c3)cc2s1 [Example 6-2] |  |  | IC50 ([1]; read-out: IC50 HBV-DNA): 25 nM; IC50 ([1]; read-out: IC50 HBsAg): 81 nM |
| COCCO[C@@H]1CCN(c2ccc(-c3cc(=O)c(C(=O)O)cn3-c3ccc4nc(C)sc4c3)cc2)C1 [Example 9, (R)-6-(4-(3-(2-Methoxyethoxy)pyrrolidin-1-yl)phenyl)-1-(2-methylbenzo[d]thiazol-6-yl)-4-oxo-1,4-dihydropyridine-3-carboxylic acid] | 580 nM | 330 nM | IC50 [2, 5]: 55 nM; IC50 [2, 6]: 24 nM |
| O=C(O)c1cn(-c2ccc3nc(N4CCOCC4)sc3c2)c(-c2ccc(N3CCCC3)c(F)c2)cc1=O [Example 7, 6-(3-Fluoro-4-(pyrrolidin-1-yl)phenyl)-1-(2-morpholinobenzo[d]thiazol-6-yl)-4-oxo-1,4-dihydropyridine-3-carboxylic acid] | 12 nM | 41 nM | IC50 [2, 5]: 1.4 nM; IC50 [2, 6]: 3.1 nM |
| 1-(2-morpholinebenzo[d]thiazol-6-yl)-4-oxo-6-(4-(pyrrolidin-1-yl)phenyl)-1,4-dihydropyridine-3-carboxylic acid [Example 3-4] |  |  | IC50 ([2]; read-out: IC50 HBV-DNA): 5.5 nM; IC50 ([2]; read-out: IC50 HBsAg): 5.9 nM; IC50 ([1]; read-out: IC50 HBV-DNA): 22 nM; IC50 ([1]; read-out: IC50 HBsAg): 14 nM |
| COCCN(CCOC)c1nc2ccc(-n3cc(C(=O)O)c(=O)cc3-c3ccc(N4CC[C@@H](OC)C4)c(Cl)c3)cc2s1 [Example 12-1, (R)-1-(2-(bis(2-methoxyethyl)amino)benzo[d]thiazol-6-yl)-6-(3-chloro-4-(3-methoxypyrrolidin-1-yl)phenyl)-4-oxo-1,4-dihydropyridine-3-carboxylic acid] | < 8 nM | 11 nM |  |
| O=C(O)c1cn(-c2ccc3ncsc3c2)c(-c2ccc(N3CCCC3)cc2)cc1=O [Example 3-1, 1-(benzo[d]thiazol-6-yl)-4-oxo-6-(4-(pyrrolidin-1-yl)phenyl)-1,4-dihydropyridine-3-carboxylic acid] | 230 nM | 540 nM | IC50 [2, 5]: 27 nM; IC50 [2, 6]: 21 nM |
| COC[C@H]1CCCN1c1nc2ccc(-n3cc(C(=O)O)c(=O)cc3-c3ccc(N4CCCC4)cc3)cc2s1 [Example 3-10, (R)-1-(2-(2-(methoxymethyl)pyrrolidin-1-yl)benzo[d]thiazol-6-yl)-4-oxo-6-(4-(pyrrolidin-1-yl)phenyl)-1,4-dihydropyridine-3-carboxylic acid] | 15 nM | 39 nM | IC50 [2, 5]: 2.8 nM; IC50 [2, 6]: 1.3 nM |
| COCCN1CCN(c2nc3ccc(-n4cc(C(=O)O)c(=O)cc4-c4ccc(N5CCCC5)cc4)cc3s2)CC1 [Example 3-14, 1-(2-(4-(2-methoxyethyl)piperazin-1-yl)benzo[d]thiazol-6-yl)-4-oxo-6-(4-(pyrrolidin-1-yl)phenyl)-1,4-dihydropyridine-3-carboxylic acid] | 24 nM | 89 nM |  |
| COCCN1CCN(c2nc3ccc(-n4cc(C(=O)O)c(=O)cc4-c4ccc(N5CC[C@@H](OC)C5)c(Cl)c4)cc3s2)CC1 [Example 12-2, (R)-6-(3-chloro-4-(3-methoxypyrrolidin-1-yl)phenyl)-1-(2-(4-(2-methoxyethyl)piperazin-1-yl)benzo[d]thiazol-6-yl)-4-oxo-1,4-dihydropyridine-3-carboxylic acid] | 28 nM | 42 nM |  |
| COC[C@H]1CCCN1c1nc2ccc(-n3cc(C(=O)O)c(=O)cc3-c3ccc(N4CCCC4)c(Br)c3)cc2s1 [Example 5-6, (R)-6-(3-bromo-4-(pyrrolidin-1-yl)phenyl)-1-(2-(2-(methoxymethyl)pyrrolidin-1-yl)benzo[d]thiazol-6-yl)-4-oxo-1,4-dihydropyridine-3-carboxylic acid] | 41 nM | 62 nM |  |
| CCN1CCN(c2nc3ccc(-n4cc(C(=O)O)c(=O)cc4-c4ccc(N5CC[C@@H](OC)C5)cc4)cc3s2)CC1 [Example 10-4, (R)-1-(2-(4-ethylpiperazin-1-yl)benzo[d]thiazol-6-yl)-6-(4-(3-methoxypyrrolidin-1-yl)phenyl)-4-oxo-1,4-dihydropyridine-3-carboxylic acid] | 61 nM | 78 nM |  |
| COCCN(CCOC)c1nc2ccc(-n3cc(C(=O)O)c(=O)cc3-c3ccc(N4CC[C@@H](OC)C4)cc3)cc2s1 [Example 10-3] |  |  | IC50 ([1]; read-out: IC50 HBV-DNA): 47 nM; IC50 ([1]; read-out: IC50 HBsAg): 56 nM |
| COC[C@H]1CCCN1c1nc2ccc(-n3cc(C(=O)O)c(=O)cc3-c3ccc(N4CCCC4)c(Cl)c3)cc2s1 [Example 6-3, (R)-6-(3-chloro-4-(pyrrolidin-1-yl)phenyl)-1-(2-(2-(methoxymethyl)pyrrolidin-1-yl)benzo[d]thiazol-6-yl)-4-oxo-1,4-dihydropyridine-3-carboxylic acid] | 30 nM | 57 nM |  |
